Laboratory results from patent US20160045505A1, “COMPOUNDS AND COMPOSITIONS FOR THE TREATMENT OF PARASITIC DISEASES” (NOVARTIS AG, priority 2013, published 2016).
pEC50: −log10 of the molar value. Read-outs that look alike come from different tables or passages of the source.

Key:
[1] = test system: L. donovani HU3 strain in mouse peritoneal macrophages; experiment: Assay for proliferation of Leishmania parasites in infected mouse peritoneal macrophages (SybrGreen staining, high-content imaging, 5 days); format: cell-based, Leishmania donovani; details: L. donovani in mouse peritoneal macrophages, read-out: L. donovani Macrophage EC50
[2] = test system: Trypanosoma cruzi amastigotes (Tulahuen strain expressing Lac-Z) cultured in 3T3 fibroblast cells; experiment: microbe, parasite or virus in culture; format: cell-based; details: Trypanosoma cruzi, TULAHUEN, Fibroblast, T. cruzi amastigotes in 3T3 fibroblast cells, read-out: T cruzi EC50
[3] = test system: Leishmania donovani axenic amastigote parasites; experiment: Leishmania donovani axenic amastigote proliferation assay (Cell TiterGlo luminescence, 2 day incubation); format: cell-based; details: read-out: L. donovani amastigotes EC50
[4] = test system: Trypanosoma brucei Lister 427 strain, bloodstream form; experiment: Assay for proliferation of kinetoplastid parasite Trypanosoma brucei (Cell Titer Glo, 48 hours); format: cell-based; details: T. brucei Lister 427 bloodstream form, read-out: T. brucei EC50
How it was run: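 Bloodstream-form T. brucei Lister 427 in HMI-9 medium was exposed to compound (DMSO vehicle) for 48 hours at 37° C, 5% CO2. Parasite growth was read as ATP by CellTiter-Glo luminescence, with EC50 calculated from percent inhibition.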

[5] = Leishmania donovani, Peritoneal macrophage, inhibition of proliferation
[6] = Leishmania donovani, axenic amastigotes, inhibition of proliferation
[7] = Trypanosoma brucei, inhibition of proliferation
[8] = Leishmania donovani, Peritoneal macrophage
[9] = Leishmania donovani, L. donovani axenic amastigotes

| SMILES | pEC50 [1, 5] | pEC50 ([2]; inhibition of proliferation) | pEC50 [3, 6] | pEC50 [4, 7] | pEC50 [1, 8] | pEC50 [2] | pEC50 [3, 9] | pEC50 ([4]; Trypanosoma brucei) | pEC50 ([1]; inhibition of proliferation) | pEC50 ([3]; axenic amastigotes, inhibition of proliferation) | pEC50 ([4]; inhibition of proliferation) |
| --- | --- | --- | --- | --- | --- | --- | --- | --- | --- | --- | --- |
| CC(C)OC(=O)Nc1cnc2nc(-c3cc(NC(=O)CN4CCCC4)ccc3F)cn2c1 [Compound 110] | 5.09 | 5.02 | < 4.60 | 4.56 |  |  |  |  |  |  |  |
| Cc1nc(C)c(C(=O)Nc2ccc(F)c(-c3cn4cc(C5=CCCO5)cnc4n3)c2)o1 [Compound 371] | 5.64 | 6.33 | 5.78 | 5.83 |  |  |  |  |  |  |  |
| CC(C)OC(=O)Nc1cnc2nc(-c3cc(NC(=O)N(C)CC(F)(F)F)ccc3F)cn2c1 [Compound 222] | 6.37 | 6.38 | 6.96 | 7.17 |  |  |  |  |  |  |  |
| Cc1nc(C)c(C(=O)Nc2ccc(F)c(-c3cn4cc(-c5cscn5)cnc4n3)c2)o1 [Compound 374] |  |  |  |  | 7.37 | 7.39 | 7.40 | 6.37 |  |  |  |
| Cc1nc(C)c(C(=O)Nc2ccc(F)c(-c3cn4cc(-c5ccc(CN(C)C)cc5)cnc4n3)c2)o1 [Compound 360] | 6.35 | 6.60 | 5.47 | 6.94 |  |  |  |  |  |  |  |
| O=C(Nc1ccc(F)c(-c2cn3cc(C4CC4)cnc3n2)c1)N1CC(F)(F)C1 [Compound 604] |  |  |  |  | 7.39 | 7.34 | 7.66 | 7.29 |  |  |  |
| O=C(Nc1ccc(F)c(-c2cn3cc(Cl)cnc3n2)c1)N1CC(F)C1 [Compound 238] | 6.10 | 6.63 | 6.68 | 6.93 |  |  |  |  |  |  |  |
| Cc1ncc(C(=O)Nc2ccc(F)c(-c3cn4cc(N(C)C)cnc4n3)c2)o1 [Compound 467] |  |  |  |  | 6.58 | 6.89 | 6.83 | 6.78 |  |  |  |
| CC(C)OC(=O)Nc1cnc2nc(-c3cc(NC(=O)N4CCC(N(C)C)C4)ccc3Cl)cn2c1 (stereo not shown) [Compound 275] | 4.77 | 4.93 | < 4.60 | 4.46 |  |  |  |  |  |  |  |
| O=C(Nc1ccc(F)c(-c2cn3cc(OCCN4CCOCC4)cnc3n2)c1)N1CCCC1 [Compound 563] |  |  |  |  | 5.07 | 5.17 | 4.85 | < 4.30 |  |  |  |
| CCc1cnc2nc(-c3cc(NC(=O)c4oc(C)nc4C)ccc3F)cn2c1 [Compound 423] |  |  |  |  | 6.66 | 7.32 | 7.05 | 7.46 |  |  |  |
| Cc1nc(C)c(C(=O)Nc2ccc(F)c(-c3cn4cc(NC(=O)c5oc(C)nc5C)cnc4n3)c2)o1 [Compound 150] | 4.36 | < 4.70 | 6.27 | 6.30 |  |  |  |  |  |  |  |
| O=C(Nc1ccc(F)c(-c2cn3cc(-c4cccnc4)cnc3n2)c1)N1CC(F)C1 [Compound 401] |  |  |  |  | 6.58 | 6.35 | 7.03 | 7.47 |  |  |  |
| O=C(Nc1cnc2nc(-c3cc(NC(=O)N4CCCC4)ccc3F)cn2c1)c1ccc(F)cn1 [Compound 124] | 5.25 | 7.34 | 7.31 | 7.64 |  |  |  |  |  |  |  |
| Cc1nc(C)c(C(=O)Nc2ccc(F)c(-c3cn4cc(NC(=O)C5CNCCCO5)cnc4n3)c2)o1 (stereo not shown) [Compound 182] | < 4.30 | < 4.70 | < 4.60 | 4.97 |  |  |  |  |  |  |  |
| Cc1nc(C)c(C(=O)Nc2ccc(F)c(-c3cn4cc(-c5ccc(N6CCOCC6)cc5)cnc4n3)c2)o1 [Compound 383] |  |  |  |  | 6.28 | 6.86 | 6.84 | 6.48 |  |  |  |
| Cc1nc(C)c(C(=O)Nc2ccc(F)c(-c3cn4cc(-c5cnccc5C)cnc4n3)c2)o1 [Compound 442] |  |  |  |  | 6.68 | 7.32 | 7.06 | 7.26 |  |  |  |

| SMILES | pEC50 [1, 5] | pEC50 ([2]; inhibition of proliferation) | pEC50 [3, 6] | pEC50 [4, 7] | pEC50 [1, 8] | pEC50 [2] | pEC50 [3, 9] | pEC50 ([4]; Trypanosoma brucei) | pEC50 ([1]; inhibition of proliferation) | pEC50 ([3]; axenic amastigotes, inhibition of proliferation) | pEC50 ([4]; inhibition of proliferation) |
| --- | --- | --- | --- | --- | --- | --- | --- | --- | --- | --- | --- |
| Cc1ncc(C(=O)Nc2ccc(F)c(-c3cn4cc(-c5ccccc5)cnc4n3)c2)o1 [Compound 329] | 7.24 | 8.15 | 7.59 | 7.26 |  |  |  |  |  |  |  |
| Cc1nc(C)c(C(=O)Nc2ccc(F)c(-c3cn4cc(NC(=O)c5ccccn5)cnc4n3)c2)o1 [Compound 119] | 6.54 | 7.11 | 7.25 | 7.07 |  |  |  |  |  |  |  |
| Cc1nc(C)c(C(=O)Nc2ccc(F)c(-c3cn4cc(NC5=NCC(C)(C)O5)cnc4n3)c2)o1 [Compound 507] |  |  |  |  | 5.24 | 5.00 | 5.73 | 5.90 |  |  |  |
| Cc1n[nH]c(C(=O)Nc2cnc3nc(-c4cc(NC(=O)c5oc(C)nc5C)ccc4F)cn3c2)n1 [Compound 171] | < 4.30 | < 4.70 | 5.81 | 5.85 |  |  |  |  |  |  |  |
| Cc1ncoc1C(=O)Nc1ccc(Cl)c(-c2cn3cc(NC(=O)OC(C)C)cnc3n2)c1 [Compound 53] | 5.20 | 6.24 | 6.35 | 6.41 |  |  |  |  |  |  |  |
| Cc1nc(C)c(C(=O)Nc2ccc(F)c(-c3cn4cc(-c5cnc(C(C)C)cn5)cnc4n3)c2)o1 [Compound 446] |  |  |  |  | 6.84 | 6.91 | 7.48 | 6.79 |  |  |  |
| O=C(Nc1ccc(F)c(-c2cn3cc(Cl)cnc3n2)c1)N1CCC1 [Compound 237] | 6.06 | 6.64 | 6.66 | 6.91 |  |  |  |  |  |  |  |
| Cc1nc(C)c(C(=O)Nc2ccc(F)c(-c3cn4cc(-c5cnn(C6CCOCC6)c5)cnc4n3)c2)o1 [Compound 385] |  |  |  |  | < 4.44 | 5.93 | 6.57 | 6.43 |  |  |  |
| Cc1nc(C)c(C(=O)Nc2ccc(F)c(-c3cn4cc(NC(=O)CC5CCCCO5)cnc4n3)c2)o1 (stereo not shown) [Compound 155] | 5.43 | 5.62 | 5.81 | 6.10 |  |  |  |  |  |  |  |
| Cc1ncoc1C(=O)Nc1ccc(F)c(-c2cn3cc(NC(=O)OC(C)C)cnc3n2)c1 [Compound 76] | 5.37 | 6.20 | 6.52 | 6.46 |  |  |  |  |  |  |  |
| O=C(Nc1ccc(Cl)c(-c2cn3cc(-c4ccc(OC5CCNCC5)cc4)cnc3n2)c1)N1CCCC1 [Compound 574] |  |  |  |  | 6.05 | 6.36 | 6.13 | 6.34 |  |  |  |
| CC(C)OC(=O)Nc1cnc2nc(-c3cc(NC(=O)N4CC[C@H](F)C4)ccc3F)cn2c1 [Compound 227] | < 4.30 | 5.31 | 5.43 | 5.36 |  |  |  |  |  |  |  |
| Cc1nc(C)c(C(=O)Nc2ccc(F)c(-c3cn4cc(NC(=O)C5CCCCO5)cnc4n3)c2)o1 (single isomer, unassigned) [Compound 184] |  | 6.25 |  |  |  |  |  |  | 6.48 | 6.84 | 6.76 |
| CC(=O)N(C)C1CCN(C(=O)Nc2ccc(Cl)c(-c3cn4cc(NC(=O)OC(C)C)cnc4n3)c2)C1 (stereo not shown) [Compound 276] | < 4.30 | < 4.70 | < 4.60 | 5.06 |  |  |  |  |  |  |  |
| CCNc1cnc2nc(-c3cc(NC(=O)c4oc(C)nc4C)ccc3F)cn2c1 [Compound 582, N-(3-(6-(ethylamino)imidazo[1,2-a]pyrimidin-2-yl)-4-fluorophenyl)-2,4-dimethyloxazole-5-carboxamide] |  |  |  |  | 6.03 | 6.33 | 6.23 | 6.32 |  |  |  |
| CC(C)OC(=O)Nc1cnc2nc(-c3cc(NC(=O)c4ccn(C)n4)ccc3F)cn2c1 [Compound 98] | 5.48 | 6.26 | 6.19 | 6.30 |  |  |  |  |  |  |  |
| Cc1nc(C)c(C(=O)Nc2ccc(F)c(-c3cn4cc(C5CCC5)cnc4n3)c2)o1 [Compound 210] | 7.07 | 7.51 | 7.33 | 7.47 |  |  |  |  |  |  |  |
